Reference: patent publication US20250145585A1, “HETEROCYCLIC INHIBITORS OF IGF-1R FOR TREATMENT OF DISEASE” (HORIZON THERAPEUTICS IRELAND DAC, priority 2023, published 2025)

Biological target: T1, IGF-1R (Homo sapiens, UniProt P08069)
T1 construct: expressed in transfected cells
Assay: Example B-2: IGF-1R Assay (PathHunter cell lines, EC80 agonist challenge, chemiluminescent detection)
Type: cell-based
Conditions: PathHunter cells, compound 60 minutes at 37° C., EC80 agonist 3 hours; read-out: IC50, Biological Activity against IGF-1R (Table B2)
Summary of the method: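 Read-out is PathHunter chemiluminescence, developed for 1 h at room temperature after a 3 h room-temperature EC80 agonist challenge that followed 60 min compound pre-treatment at 37° C (1% vehicle). IC50 comes from % inhibition normalized to EC80 and vehicle controls.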

T1 sequence (P08069 31-1367): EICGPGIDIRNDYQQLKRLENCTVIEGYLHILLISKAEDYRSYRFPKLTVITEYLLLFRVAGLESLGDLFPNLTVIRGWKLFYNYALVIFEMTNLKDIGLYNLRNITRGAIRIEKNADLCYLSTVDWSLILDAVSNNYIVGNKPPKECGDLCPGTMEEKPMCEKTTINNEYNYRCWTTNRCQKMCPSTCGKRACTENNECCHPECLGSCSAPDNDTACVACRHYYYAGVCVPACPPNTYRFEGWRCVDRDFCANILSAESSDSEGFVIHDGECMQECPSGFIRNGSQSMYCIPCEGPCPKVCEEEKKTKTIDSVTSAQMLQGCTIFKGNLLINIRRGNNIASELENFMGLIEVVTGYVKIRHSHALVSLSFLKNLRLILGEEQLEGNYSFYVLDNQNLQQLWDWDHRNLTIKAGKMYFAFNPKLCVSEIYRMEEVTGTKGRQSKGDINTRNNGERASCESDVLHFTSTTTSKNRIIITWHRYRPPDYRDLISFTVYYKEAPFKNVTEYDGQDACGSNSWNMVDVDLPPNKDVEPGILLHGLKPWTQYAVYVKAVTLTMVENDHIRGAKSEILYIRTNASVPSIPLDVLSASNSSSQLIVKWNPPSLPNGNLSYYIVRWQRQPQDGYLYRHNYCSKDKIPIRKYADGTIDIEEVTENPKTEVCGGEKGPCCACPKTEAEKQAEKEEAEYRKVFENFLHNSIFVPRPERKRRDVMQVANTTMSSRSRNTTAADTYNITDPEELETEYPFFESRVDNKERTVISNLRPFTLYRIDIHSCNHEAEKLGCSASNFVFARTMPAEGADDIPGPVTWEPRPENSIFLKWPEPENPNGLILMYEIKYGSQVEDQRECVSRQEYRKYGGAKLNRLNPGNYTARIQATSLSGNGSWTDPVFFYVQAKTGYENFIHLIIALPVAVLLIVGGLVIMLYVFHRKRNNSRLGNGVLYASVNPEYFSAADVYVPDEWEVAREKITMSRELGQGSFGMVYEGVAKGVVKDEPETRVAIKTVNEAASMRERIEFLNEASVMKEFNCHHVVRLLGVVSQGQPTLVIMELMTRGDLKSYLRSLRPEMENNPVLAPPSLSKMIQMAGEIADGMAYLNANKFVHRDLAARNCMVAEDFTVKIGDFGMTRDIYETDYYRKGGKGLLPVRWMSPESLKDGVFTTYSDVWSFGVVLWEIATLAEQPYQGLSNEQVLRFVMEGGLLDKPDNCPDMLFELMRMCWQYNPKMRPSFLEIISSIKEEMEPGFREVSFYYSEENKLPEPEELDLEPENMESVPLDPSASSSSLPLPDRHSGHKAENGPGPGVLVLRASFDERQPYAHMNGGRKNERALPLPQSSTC

Row | Structure (SMILES) | IC50 [nM]
1 | CC(C)Nc1cc(CN2C(=O)N(c3ccc4c(c3)N(S(C)(=O)=O)CC4(C)C)C(=O)C2(C)C)ccn1 [Compound 194, 3-(3,3-dimethyl-1-(methylsulfonyl)indolin-6-yl)-1-((2-(isopropylamino)pyridin-4-yl)methyl)-5,5-dimethylimidazolidine-2,4-dione] | ≤ 500
2 | CC1(C)C(=O)N(c2ccc(C#N)c(C(F)(F)F)c2)C(=O)N1Cc1ccnc2c1CC(=O)N2 [Compound 76, 4-(4,4-dimethyl-2,5-dioxo-3-((2-oxo-2,3-dihydro-1H-pyrrolo[2,3-b]pyridin-4-yl)methyl)imidazolidin-1-yl)-2-(trifluoromethyl)benzonitrile] | 2000 to 10000
3 | CC1(C)C(=O)N(c2ccc3c(c2)N(S(C)(=O)=O)CC32CC2)C(=O)N1Cc1ccnc(N[C@H]2[C@@H]3COC[C@@H]32)c1 [Compound 222, 1-((2-(((1R,5S,6r)-3-oxabicyclo[3.1.0]hexan-6-yl)amino)pyridin-4-yl)methyl)-5,5-dimethyl-3-(1′-(methylsulfonyl)spiro[cyclopropane-1,3′-indolin]-6′-yl)imidazolidine-2,4-dione] | ≤ 500
4 | CC(C)Nc1cc(CN2C(=O)N(c3cnc4c(c3)OCC4(C)C)C(=O)C2(C)C)ccn1 [Compound 193, 3-(3,3-dimethyl-2,3-dihydrofuro[3,2-b]pyridin-6-yl)-1-((2-(isopropylamino)pyridin-4-yl)methyl)-5,5-dimethylimidazolidine-2,4-dione] | 2000 to 10000
5 | CC1(C)CN(S(C)(=O)=O)c2cc(N3C(=O)N(Cc4ccnc(N[C@@H]5C[C@@H]5F)c4)C(C)(C)C3=O)ccc21 [Compound 208, 3-(3,3-dimethyl-1-(methylsulfonyl)indolin-6-yl)-1-((2-(((1R,2S)-2-fluorocyclopropyl)amino)pyridin-4-yl)methyl)-5,5-dimethylimidazolidine-2,4-dione] | ≤ 500
6 | Cn1ccc(CNc2cc(CN3C(=O)N(c4ccc5c(c4)N(S(C)(=O)=O)CC5(C)C)C(=O)C3(C)C)ccn2)n1 [Compound 246, 3-(3,3-dimethyl-1-(methylsulfonyl)indolin-6-yl)-5,5-dimethyl-1-((2-(((1-methyl-1H-pyrazol-3-yl)methyl)amino)pyridin-4-yl)methyl)imidazolidine-2,4-dione] | ≤ 500
7 | CC1(C)CN(S(=O)(=O)C2CC2)c2cc(N3C(=O)N(Cc4ccnc(NC5CCOCC5)c4)C(C)(C)C3=O)ccc21 [Compound 248, 3-(1-(cyclopropylsulfonyl)-3,3-dimethylindolin-6-yl)-5,5-dimethyl-1-((2-((tetrahydro-2H-pyran-4-yl)amino)pyridin-4-yl)methyl)imidazolidine-2,4-dione] | ≤ 500
8 | COCCN1CC(C)(C)c2ccc(N3C(=O)N(Cc4ccnc(NC5CCOCC5)c4)C(C)(C)C3=O)cc21 [Compound 227, 3-(1-(2-methoxyethyl)-3,3-dimethylindolin-6-yl)-5,5-dimethyl-1-((2-((tetrahydro-2H-pyran-4-yl)amino)pyridin-4-yl)methyl)imidazolidine-2,4-dione] | ≤ 500
9 | CC1(C)C(=O)N(c2ccc3c(c2)N(C(=O)C2CC2)CC32CC2)C(=O)N1Cc1ccnc(N[C@H]2[C@@H]3COC[C@@H]32)c1 [Compound 231, 1-((2-((1R,5S,6r)-3-oxabicyclo[3.1.0]hexan-6-ylamino)pyridin-4-yl)methyl)-3-(1′-(cyclopropanecarbonyl)spiro[cyclopropane-1,3′-indolin]-6′-yl)-5,5-dimethylimidazolidine-2,4-dione] | ≤ 500

Other lines, results leading:

Row | IC50 [nM] | Structure (SMILES)
10 | ≤ 500 | CC(C)Nc1cc(CN2C(=O)N(c3ccc4c(c3)N(S(C)(=O)=O)CC43CC3)C(=O)C2(C)C)ccn1 [Compound 200, 1-((2-(isopropylamino)pyridin-4-yl)methyl)-5,5-dimethyl-3-(1′-(methylsulfonyl)spiro[cyclopropane-1,3′-indolin]-6′-yl)imidazolidine-2,4-dione]
11 | ≤ 500 | CC1(C)C(=O)N(c2ccc(S(=O)(=O)C(F)(F)F)cc2)C(=O)N1Cc1ccnc(NC2CC2)c1 [Compound 356, 1-((2-(cyclopropylamino)pyridin-4-yl)methyl)-5,5-dimethyl-3-(4-((trifluoromethyl)sulfonyl)phenyl)imidazolidine-2,4-dione]
12 | ≤ 500 | CC1(C)C(=O)N(c2ccc(C3(C(F)(F)F)CC3)cc2)C(=O)N1Cc1ccnc(NCc2nc3ccccn3n2)c1 [Compound 175, 1-((2-(([1,2,4]triazolo[1,5-a]pyridin-2-ylmethyl)amino)pyridin-4-yl)methyl)-5,5-dimethyl-3-(4-(1-(trifluoromethyl)cyclopropyl)phenyl) imidazolidine-2,4-dione]
13 | 500 to 2000 | CN1CC(Nc2cc(CN3C(=O)N(c4ccc(S(=O)(=O)C(F)(F)F)cc4)C(=O)C3(C)C)ccn2)CCC1=O (stereo not shown) [Compound 330, 5,5-dimethyl-1-((2-((1-methyl-6-oxopiperidin-3-yl)amino)pyridin-4-yl)methyl)-3-(4-((trifluoromethyl)sulfonyl)phenyl) imidazolidine-2,4-dione]
14 | 500 to 2000 | COC(C)(C)CNc1cc(CN2C(=O)N(c3ccc4c(c3)N(S(C)(=O)=O)CC43CCC3)C(=O)C2(C)C)ccn1 [Compound 235, 1-((2-((2-methoxy-2-methylpropyl)amino)pyridin-4-yl)methyl)-5,5-dimethyl-3-(1′-(methylsulfonyl)spiro[cyclobutane-1,3′-indolin]-6′-yl)imidazolidine-2,4-dione]
15 | 500 to 2000 | CC(C)c1ccc(N2C(=O)N(Cc3ccnc4c3CC(=O)N4)C(C)(C)C2=O)cc1C#N [Compound 68, 5-(4,4-dimethyl-2,5-dioxo-3-((2-oxo-2,3-dihydro-1H-pyrrolo[2,3-b]pyridin-4-yl)methyl)imidazolidin-1-yl)-2-isopropylbenzonitrile]
16 | ≤ 500 | CC1(C)C(=O)N(c2ccc3c(c2)N(S(C)(=O)=O)CC32CC2)C(=O)N1Cc1ccnc(N[C@H]2CCOC2)c1 [Compound 223, (S)-5,5-dimethyl-3-(1′-(methylsulfonyl)spiro[cyclopropane-1,3′-indolin]-6′-yl)-1-((2-((tetrahydrofuran-3-yl)amino)pyridin-4-yl)methyl)imidazolidine-2,4-dione]
17 | 500 to 2000 | CC(C)OC[C@H](C)Nc1cc(CN2C(=O)N(c3ccc(C4(C(F)(F)F)CC4)cc3)C(=O)C2(C)C)ccn1 [Compound 158, (S)-1-((2-((1-isopropoxypropan-2-yl)amino)pyridin-4-yl)methyl)-5,5-dimethyl-3-(4-(1-(trifluoromethyl)cyclopropyl)phenyl) imidazolidine-2,4-dione]
18 | ≤ 500 | Cn1cncc1CNc1cc(CN2C(=O)N(c3ccc(C4(C(F)(F)F)CC4)cc3)C(=O)C2(C)C)ccn1 [Compound 176, 5,5-dimethyl-1-((2-(((1-methyl-1H-imidazol-5-yl)methyl)amino)pyridin-4-yl)methyl)-3-(4-(1-(trifluoromethyl)cyclopropyl)phenyl) imidazolidine-2,4-dione]
19 | ≤ 500 | CC1(C)C(=O)N(c2ccc(C3(C#N)CCC3)cc2)C(=O)N1Cc1ccnc2c1CC(=O)N2 [Compound 40, (1-(4-(4,4-dimethyl-2.5-dioxo-3-((2-oxo-2,3-dihydro-1H-pyrrolo[2,3-b]pyridin-4-yl)methyl)imidazolidin-1-yl)phenyl)cyclobutane-1-carbonitrile)]
